Assay results taken from patent US20220033396A1, “FURTHER HETEROAROMATIC COMPOUNDS HAVING ACTIVITY AGAINST RSV” (priority 2018, published 2022).

Columns and labels:
rgRSV224 virus = experiment: microbe, parasite or virus in culture; assay type: cell-based; settings: human respiratory syncytial virus, 72 h; rgRSV224 virus (MOI=1), HeLa cells, GFP expression three days post-virus exposure; averaged data of several repeat experiments; read-out: RSV HELA EC50
in vitro = settings: human

Compound	EC50 (rgRSV224 virus)	CC50 at 3 days (in vitro)
C[C@@H]1c2ccccc2CCN1C(=O)c1cc(C2CC2)c2nc(-c3ccc(C4C[C@@H]4C(=O)O)cc3F)cn2c1 (relative stereo) [Compound 6, Trans 2-(4-{8-Cyclopropyl-6-[(1R)-1-methyl-1,2,3,4-tetrahydroisoquinoline-2-carbonyl]imidazo[1,2-a]pyridin-2-yl}-3-fluorophenyl)cyclopropane-1-carboxylic acid]	0.103 µM	56.2 µM
C[C@@H]1c2ccccc2CCN1C(=O)c1cc(C2CC2)c2nc(-c3ccc(C4C[C@@H]4C(N)=O)cc3F)cn2c1 (relative stereo) [Compound 7, Trans 2-(4-{8-Cyclopropyl-6-[(1R)-1-methyl-1,2,3,4-tetrahydroisoquinoline-2-carbonyl]imidazo[1,2-a]pyridin-2-yl}-3-fluorophenyl)cyclopropane-1-carboxamide]	0.184 µM	65.4 µM
C[C@@H]1c2ccccc2CCN1C(=O)c1cc(C2CC2)c2nc(-c3ccc(C4C[C@@H]4C(=O)NS(C)(=O)=O)cc3F)cn2c1 (relative stereo) [Compound 8, Trans 2-(4-{8-Cyclopropyl-6-[(1R)-1-methyl-1,2,3,4-tetrahydroisoquinoline-2-carbonyl]imidazo[1,2-a]pyridin-2-yl}-3-fluorophenyl)-N-methanesulfonylcyclopropane-1-carboxamide]	0.793 µM	69.1 µM
C[C@@H]1c2ccsc2CCN1C(=O)c1cc(C2CC2)c2nc(-c3ccc(N4CC[C@H](C(N)=O)C4)cc3F)cn2c1 (single isomer, unassigned) [Compound 13, (3S)-1-(4-{8-Cyclopropyl-6-[(4*R)-4-methyl-4,5,6,7-tetrahydro-thieno[3,2-c]pyridine-5-carbonyl]imidazo[1,2-a]pyridin-2-yl}-3-fluorophenyl)pyrrolidine-3-carboxamide]	0.037 µM	77.1 µM
CNC(=O)[C@H]1CCN(c2ccc(-c3cn4cc(C(=O)N5CCc6sccc6[C@H]5C)cc(C5CC5)c4n3)c(F)c2)C1 (single isomer, unassigned) [Compound 14, (3S)-1-(4-{8-Cyclopropyl-6-[(4*R)-4-methyl-4,5,6,7-tetrahydro-thieno[3,2-c]pyridine-5-carbonyl]imidazo[1,2-a]pyridin-2-yl}-3-fluorophenyl)-N-methylpyrrolidine-3-carboxamide]	0.084 µM	> 100 µM
C[C@@H]1c2ccsc2CCN1C(=O)c1cc(-c2cccnc2)c2nc(-c3ccc(N4CC[C@H](C(N)=O)C4)cc3F)cn2c1 (single isomer, unassigned) [Compound 18, (3S)-1-(3-Fluoro-4-{6-[(4*R)-4-methyl-4,5,6,7-tetrahydro-thieno[3,2-c]pyridine-5-carbonyl]-8-(pyridin-3-yl)imidazo[1,2-a]pyridin-2-yl}phenyl)pyrrolidine-3-carboxamide]	0.108 µM	21.7 µM
C[C@@H]1c2ccccc2CCN1C(=O)c1cc(C2CC2)c2nc(-c3ccc(NC(=O)N4CC[C@@H](O)C4)cc3F)cn2n1 [Compound 37, (R)-N-(4-(8-cyclopropyl-6-((R)-1-methyl-1,2,3,4-tetrahydroisoquinoline-2-carbonyl)imidazo[1,2-b]pyridazin-2-yl)-3-fluorophenyl)-3-hydroxypyrrolidine-1-carboxamide]		32.2 µM
CCc1cc(C(=O)N2CCc3ccccc3[C@H]2C)nn2cc(-c3ccc(NC(=O)N4CC[C@@H](O)C4)cc3F)nc12 [Compound 39, (R)-N-(4-(8-ethyl-6-((R)-1-methyl-1,2,3,4-tetrahydroisoquinoline-2-carbonyl)imidazo[1,2-b]pyridazin-2-yl)-3-fluorophenyl)-3-hydroxypyrrolidine-1-carboxamide]		29.3 µM
